Reference: ChEMBL document CHEMBL2439955, “Synthesis and biological evaluation of 5-carbamoyl-2-phenylpyrimidine derivatives as novel and potent PDE4 inhibitors” (Bioorg Med Chem, 2013)

What was measured:
[1] = target: T1, 3',5'-cyclic-AMP phosphodiesterase 4B (Homo sapiens, UniProt Q07343); experiment: Inhibition of recombinant human PDE4B using cAMP as substrate after 30 mins
Splenocyte = experiment: Inhibition of LPS-induced TNFalpha production in Balb/c mouse splenocytes after 18 to 24 hrs by AlphaLISA assay; assay type: functional, cell-based
[2] = target: T1, 3',5'-cyclic-AMP phosphodiesterase 4B; experiment: Inhibition of recombinant human PDE4B using cAMP as substrate at 3 uM after 30 mins
Mus musculus [3] = experiment: Inhibition of LPS-induced pulmonary neutrophilia in BALB/c mouse assessed as reduction of neutrophils level in bronchoalveolar lavage fluid at 1 mg/kg administered intratracheally 30 mins before LPS challenge measured after 4 to 5 hrs; assay type: functional; settings: route endotracheal
[4] = AUC in mouse at 10 mg/kg, ip; assay type: ADME, organism-based; set-up: dose 10 mg/kg, route intraperitoneal; settings: plasma
[5] = Terminal half life in mouse at 10 mg/kg, ip; assay type: ADME, organism-based; set-up: dose 10 mg/kg, route intraperitoneal; settings: in vivo, read-out: beta t1/2 (converted)
[6] = Metabolic stability of the compound in mouse liver microsomes after 30 mins; assay type: ADME, Microsome; settings: read-out: Stability
Mus musculus [7] = experiment: Inhibition of LPS-induced pulmonary neutrophilia in ip dosed BALB/c mouse assessed as reduction of neutrophils level in bronchoalveolar lavage fluid administered 30 mins before LPS challenge measured after 4 to 5 hrs; assay type: functional; settings: read-out: ID50 (the source's name)
[8] = Octanol-phosphate buffered saline distribution coefficient, log D of the compound at pH 7.4; assay type: physicochemical
[9] = Cmax in mouse at 10 mg/kg, ip; assay type: ADME, organism-based; set-up: dose 10 mg/kg, route intraperitoneal; settings: in vivo
[10] = target: T1, 3',5'-cyclic-AMP phosphodiesterase 4B; experiment: Inhibition of recombinant human PDE4B using cAMP as substrate at 10 uM after 30 mins
[11] = target: T1, 3',5'-cyclic-AMP phosphodiesterase 4B; experiment: Inhibition of recombinant human PDE4B using cAMP as substrate at 1 uM after 30 mins

T1 sequence (Q07343 whole entry): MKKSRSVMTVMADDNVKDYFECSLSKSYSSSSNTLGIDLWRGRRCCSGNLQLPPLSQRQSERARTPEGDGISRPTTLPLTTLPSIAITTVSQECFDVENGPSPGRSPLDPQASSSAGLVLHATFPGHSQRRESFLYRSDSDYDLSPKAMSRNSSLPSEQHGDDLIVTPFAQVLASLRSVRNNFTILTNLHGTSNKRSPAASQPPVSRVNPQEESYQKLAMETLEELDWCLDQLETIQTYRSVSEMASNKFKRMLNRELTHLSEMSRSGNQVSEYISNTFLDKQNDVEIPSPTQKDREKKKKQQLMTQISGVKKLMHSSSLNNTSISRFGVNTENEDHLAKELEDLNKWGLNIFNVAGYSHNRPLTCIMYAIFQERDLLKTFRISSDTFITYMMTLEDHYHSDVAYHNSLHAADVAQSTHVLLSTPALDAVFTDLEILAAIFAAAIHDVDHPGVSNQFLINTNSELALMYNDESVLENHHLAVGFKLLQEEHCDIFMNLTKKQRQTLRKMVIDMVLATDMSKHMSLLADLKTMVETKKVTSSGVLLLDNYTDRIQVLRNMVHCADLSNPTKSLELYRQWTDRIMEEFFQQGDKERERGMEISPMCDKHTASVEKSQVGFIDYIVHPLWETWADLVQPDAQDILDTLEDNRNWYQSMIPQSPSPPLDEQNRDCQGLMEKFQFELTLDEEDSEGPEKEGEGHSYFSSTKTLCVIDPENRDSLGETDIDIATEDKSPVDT

SMILES	IC50 [1] [nM]	IC50 (Splenocyte) [nM]	other results
Cc1nc(-c2ccccc2)nc(Nc2ccc(CC(=O)O)cc2)c1C(N)=O	4000	–	–
CC(C)(C)CNC(=O)Cc1ccc(Nc2nc(-c3cncnc3)ncc2C(N)=O)cc1	110	–	–
O=C(O)Cc1ccc(Nc2nc(-c3ccccc3)ncc2C(=O)NO)cc1	–	–	inhibition [2]: 42%
O=C(Nc1c(Cl)cncc1Cl)c1ccc(OC(F)F)c(OCC2CC2)c1 [ROFLUMILAST]	–	1.2	inhibition in vivo at 1 mg/kg (Mus musculus [3]): 47%
CSc1nc(-c2ccccc2)nc(Nc2ccc(CC(=O)O)cc2)c1C(N)=O	2000	–	–
CN(C)C(=O)c1cnc(-c2ccccc2)nc1Nc1ccc(CC(=O)O)cc1	–	–	inhibition [10]: 8%
CC(C)(C)CNC(=O)Cc1ccc(Nc2nc(-c3cccnc3)ncc2C(N)=O)cc1	29	23	–
CCCNC(=O)Cc1ccc(Nc2nc(-c3ccccc3)ncc2C(N)=O)cc1	120	47	–
CC(C)(C)CNC(=O)Cc1ccc(Nc2nc(-c3ccsc3)ncc2C(N)=O)cc1	–	–	inhibition [11]: 18%
CN(C)c1ncc(C(N)=O)c(Nc2ccc(CC(=O)NCC(C)(C)C)cc2)n1	16	7.1	–
O=C(O)Cc1ccc(Nc2nc(-c3ccccc3)nc3c2C(=O)NCC3)cc1	47	460	–
CC(C)(C)CNC(=O)Cc1ccc(Nc2nc(NN3CCCCC3)ncc2C(N)=O)cc1	6500	–	–
CS(=O)(=O)NC(=O)Cc1ccc(Nc2nc(-c3ccccc3)ncc2C(N)=O)cc1	490	4800	–
CNC(=O)c1cnc(-c2ccccc2)nc1Nc1ccc(CC(=O)O)cc1	8200	–	–
NC(=O)c1cnc(-c2ccccc2)nc1Nc1ccc(CC(=O)O)cc1	200	690	–
CC(C)(C)NC(=O)Cc1ccc(Nc2nc(-c3ccccc3)ncc2C(N)=O)cc1	110	49	–
NC(=O)Cc1ccc(Nc2nc(-c3ccccc3)ncc2C(N)=O)cc1	120	74	–

Continued by falling IC50 [1], values first:

IC50 [1] [nM]	IC50 (Splenocyte) [nM]	SMILES	other results
16	18	NC(=O)c1cnc(-c2ccccc2)nc1Nc1ccc(CC(=O)NCC2CC2)cc1	–
13	3.8	CC(C)(C)CNC(=O)Cc1ccc(Nc2nc(N3CCCC3)ncc2C(N)=O)cc1	–
11	12	CC(C)CNC(=O)Cc1ccc(Nc2nc(-c3ccccc3)ncc2C(N)=O)cc1	–
11	1000	CC(C)(C)CNC(=O)Cc1ccc(Nc2nc(-c3ccoc3)ncc2C(N)=O)cc1	–
8.3	3	CC(C)(C)CNC(=O)Cc1ccc(Nc2nc(-c3ccccc3)ncc2C(N)=O)cc1	AUC [4]: 3990 ng·h/mL; half-life [5]: 3.2 h; remaining at 0.5 h [6]: 52%; ED50 (Mus musculus [7]): 16 mg/kg; logD [8]: 4.9; Cmax [9]: 1490 ng/mL
8.2	840	CC(C)(C)CNC(=O)Cc1ccc(Nc2nc(-c3ccc4[nH]ccc4c3)ncc2C(N)=O)cc1	–
7.3	0.21	CC(C)CNC(=O)Cc1ccc(Nc2nc(-c3ccccc3)nc3c2C(=O)NCC3)cc1	inhibition in vivo at 1 mg/kg (Mus musculus [3]): 41%
7.1	43	NC(=O)c1cnc(-c2ccccc2)nc1Nc1ccc(CC(=O)NO)cc1	–
3.7	9.6	C=C(C)c1ncc(C(N)=O)c(Nc2ccc(CC(=O)NCC(C)(C)C)cc2)n1	–
